These results are taken from patent US9579325B2, “Modulators of TNF-α signaling” (Genzyme Corporation, priority 2000, dated 2017).

The structures appear in SMILES notation.

As usually defined, the bioavailability is the share of a dose that reaches the circulation, judged against a reference dose that is usually intravenous. Read a high bioavailability as good availability.

The subject of data set [1] is Normal human dermal fibroblasts. Put plainly: TNF-α induced apoptosis in primary human fibroblasts. It counts as cell-based. The conditions noted are these: for OD 595 nm: 2 ng/ml TNF-α 24 hours, crystal violet. From the text:
Description of Table V: The results shown in Table V were obtained using the TNF-α assays performed as described in the protocols entitled “Method for TNF High Throughput Screen” and “Method for VCAM High Throughput Screen”, which are detailed below. These assays measure a cellular response to TNF-α stimulation, and the data published in the table are expressed as percentage inhibitions. Percentage inhibition is computed on a scale of 0 to 100% where 0 percent inhibition means the compound has no effect in the assay (the response is indistinguishable from TNF-α treatment alone), and 100% inhibition means that when the compound is present at the stated concentration, the response in the assay is the same as if TNF-α were not added. These two assays measure two different outcomes of TNF-α treatment, cell death and Vascular Cell Adhesion Molecule (VCAM) expression, and capture two of TNF-α's many biological effects. TNF-α induced apoptosis is a mechanism by which TNF-α production during immune/inflammatory responses can lead to direct cellular and tissue damage. TNF-α VCAM expression in endothelial cells is a response that allows leukocytes to leave the blood and enter a site of immune/inflammatory response. Both of these activities could lead to pathology in immune/inflammatory diseases. In the first column of the table, the percentage inhibition of the TNF-α driven apoptosis assay when the compounds are tested at 1 μM concentration is presented. The second column in the table lists the IC50 for the compound, a standard measure using a dilution series in the assay, and fitting a sigmoidal curve to the resulting dose-response curve. The IC50 is the concentration (derived analytically from the sigmoidal function) at which the compound would inhibit 50% of the response in the assay. The third and fourth column list the corresponding analysis for the TNF-α driven VCAM assay. In Table VI, data corresponding to the data in column 1 of Table V is shown, with human cells replacing the mouse cells used in the high throughput screen. […] As a consequence, the compounds will have use in treating more than one TNF-α mediated condition, and may be selected according to the manner in which the condition manifests. This corresponds to the use of these compounds in the treatment of human disease.
Normal human dermal fibroblasts were seeded into 96-well plates at 3×10^4 cells/well. Cells were pretreated for 2 hours with […] Actinomycin D and either Compound 44 or DMSO as a vehicle control. Cells were then exposed to 2 ng/ml TNF-α for 24 hours and stained with crystal violet/ethanol. Crystal violet was solubilized with methanol and absorbance at 595 nm was read on a microtiter plate reader.

Data set [2] has as its system C57/BL mouse. Kind of data set: Sepsis model: murine LPS-d-galactosamine model. The settings on record: 200 mg/kg intraperitoneally one hour before induction; prevention of mortality over three days. It counts as in vivo. The method, then:
Sepsis was induced in the C57/BL mouse by the intravenous injection of 20 ng of lipopolysaccharide/animal plus 20 mgs d-galactosamine/animal. Inhibition was measured as the prevention of mortality over a three day period. Compounds were administered intraperitoneally in 10% cremophore/10% ethanol/80% normal saline one hour before induction.

Data set [3] can be described thus: Pharmacokinetic parameters. It counts as in vivo. The settings on record: in vivo.
For data set [4], the system named is SJL mouse strain. Kind of data set: Experimental Allergic Encephalitis (murine model of multiple sclerosis). It counts as in vivo. As to the method:
SJL mouse strain were immunized subcutaneously with proteolipid peptide amino acid residues 139-151 in Complete Freund's Adjuvant. Pertussis toxin was injected intravenously on day 1 and 3 post-induction. Weight loss occurred at day 7 post-immunization with paralysis ensuing between days 9 and 14 post-immunization.

Regarding `N#Cc1cccc(C(C(=O)NCC(c2ccccc2)c2ccccc2)N(CCc2c[nH]cn2)C(=O)c2ccccc2C(=O)c2ccccc2)c1` (stereo not drawn) [Compound 44], the “% Rescue” value stood at 18.4% in data set [1] (2 μM compound), 57.1% in data set [1] (4 μM compound) and 109.2% in data set [1] (8 μM compound). Moreover, the “OD 595 nm” value came out at 0.109 in data set [1] (2 μM compound), 0.147 in data set [1] (4 μM compound) and 0.198 in data set [1] (8 μM compound). Besides, the “Sepsis: Murine LPS-d-galactosamine model % inhibition” value in data set [2] is 33 +/− 1 @ 200%. This compound yielded a bioavailability in data set [3] (po, species not given) of 26%. For the same compound, the half-life in data set [3] (unit and species not given, read-out: Pharmacokinetic Parameters t1/2 (converted)) is 2.3 h. The “% inhibition of disease” value in data set [4] (Induction regimen, 15 mgs/kg/day/i.p. from day 1-21, P = 0.06) is 44.0%; in data set [4] (Induction regimen, 75 mgs/kg/day/i.p. from day 1-21, p = 0.001), 75.7%; in data set [4] (Oral therapeutic regimen, 75 mgs/kg/day/i.p. from day 7-28, p = 0.002) it was 50%; in data set [4] (Therapeutic regimen, 15 mgs/kg/day/i.p. from day 7-21, p = 0.08), 43.5%; in data set [4] (Therapeutic regimen, 75 mgs/kg/day/i.p. from day 7-21, p = 0.001), 76.1%. In addition, the “activity disease severity score (ADSS) at last day of dosing, treated (vs. control)” value is reported as 1.9/3.35 in data set [4] (Induction regimen, 15 mgs/kg/day/i.p. from day 1-21, control 3.35); 0.8/3.35 in data set [4] (Induction regimen, 75 mgs/kg/day/i.p. from day 1-21, control 3.35); 2.2/4.4 in data set [4] (Oral therapeutic regimen, 75 mgs/kg/day/i.p. from day 7-28, control 4.4); 2.6/4.6 in data set [4] (Therapeutic regimen, 15 mgs/kg/day/i.p. from day 7-21, control 4.6); 1.1/4.6 in data set [4] (Therapeutic regimen, 75 mgs/kg/day/i.p. from day 7-21, control 4.6). Further, the “% Survival of treated (vs. % survival of controls)” value was determined as 75 vs. 50% in data set [4] (Induction regimen, 15 mgs/kg/day/i.p. from day 1-21, controls 50); 100 vs. 50% in data set [4] (Induction regimen, 75 mgs/kg/day/i.p. from day 1-21, controls 50); 89 vs. 20% in data set [4] (Oral therapeutic regimen, 75 mgs/kg/day/i.p. from day 7-28, controls 20); 70 vs. 11% in data set [4] (Therapeutic regimen, 15 mgs/kg/day/i.p. from day 7-21, controls 11); 100 vs. 11% in data set [4] (Therapeutic regimen, 75 mgs/kg/day/i.p. from day 7-21, controls 11).
